Results: ChEMBL document CHEMBL1201862, “PubChem BioAssay data set” (2004)
Activity calls are given as the source filed them.

Key:
[1] = tested on: Candida albicans; assay: growth inhibition of resistant C. albicans, dose response, CaCi-8 strain, fluconazole, dry powder, set 4 (AID 488950); assay type: functional, organism-based
[2] = tested on: Candida albicans; assay: C. albicans growth inhibition with fluconazole, dose response, antifungal resistance reversal project, CaCi-2 strain, Alamar Blue, dry powder, set 2 (AID 488930); assay type: functional, organism-based
[3] = tested on: HEK293; assay: inhibitors of LMP1-driven NF-kB reporter, dose response, cell-based, HEK293, luciferase, cherry-pick (AID 588343); assay type: functional; conditions: Homo sapiens
[4] = tested on: Candida albicans; assay: fluconazole resistance reversal in C. albicans, dose response, CaCi-2 strain, Alamar Blue, dry powder, set 4 (AID 488943); assay type: functional, organism-based
[5] = tested on: Candida albicans; assay: growth inhibition of azole-resistant C. albicans, dose response, CaCi-8 strain, Alamar Blue, dry powder, set 2 (AID 488909); assay type: functional, organism-based
[6] = tested on: Candida albicans; assay: Candida albicans growth inhibition, agent alone, dose response, counter-screen for reversing antifungal drug resistance, CaCi-2 strain, no fluconazole, dry powder, set 4 (AID 488932); assay type: functional, organism-based
[7] = molecular target: T1, Protein Wnt-3a (Mus musculus, UniProt P27467); assay: Wnt3a-driven reporter signaling inhibition, dose response, selectivity assay for Gli-SUFU antagonist project, Wnt-LIGHT cells, luminescence (AID 651570); assay type: functional; conditions: read-out: IC50_Mean;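 also: Wnt-LIGHT reporter cells stimulated with conditioned medium from Wnt3a-producing cells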
[8] = molecular target: T2, Heat shock factor protein 1 (Mus musculus, UniProt P38532); assay: inhibition of MG132-induced HSE-luciferase signal, confirmation, cell-based, NIH3T3, luminescence, dose retest (AID 2382); assay type: functional;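 also: NIH3T3 fibroblasts with HSF1-driven luciferase reporter stressed by proteasome inhibitor MG132; luminescence from HSF1-driven luciferase expression after 8 hours of MG132 stress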
T2 sequence (P38532 whole entry): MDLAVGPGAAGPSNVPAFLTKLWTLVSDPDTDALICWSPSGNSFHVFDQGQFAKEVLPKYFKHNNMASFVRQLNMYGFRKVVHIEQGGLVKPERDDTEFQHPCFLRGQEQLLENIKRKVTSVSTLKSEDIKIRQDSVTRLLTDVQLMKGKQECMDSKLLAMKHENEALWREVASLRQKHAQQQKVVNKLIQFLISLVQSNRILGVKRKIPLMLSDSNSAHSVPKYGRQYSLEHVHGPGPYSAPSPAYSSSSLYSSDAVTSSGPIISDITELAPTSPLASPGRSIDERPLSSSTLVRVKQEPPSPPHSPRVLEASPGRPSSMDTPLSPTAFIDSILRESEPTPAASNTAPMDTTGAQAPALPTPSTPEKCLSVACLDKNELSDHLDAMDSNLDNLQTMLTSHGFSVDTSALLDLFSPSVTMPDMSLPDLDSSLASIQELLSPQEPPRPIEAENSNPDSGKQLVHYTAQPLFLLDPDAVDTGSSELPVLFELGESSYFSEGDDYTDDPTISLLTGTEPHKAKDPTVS

[9] = cytotoxicity in HEK-293T cells, dose response, cytotoxicity control for BCR NF-kB inhibitor project, luminescence, B-cell screen hits (AID 489021); assay type: functional, cell-based;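 also: HEK-293T cells carrying an NF-kB luciferase reporter; cells exposed to compound for about 14 hours before viability readout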
[10] = tested on: HEK293; assay: cytotoxicity in HEK293T NF-kB-Luc cells, SAR follow-up, cytotoxicity control for NF-kB activator project, cell-based, resazurin fluorescence (AID 493251); assay type: functional; conditions: Homo sapiens
[11] = tested on: Jurkat; assay: SAR Analysis of small molecule inhibitors of T-cell specific antigen receptor-induced NF-kB activation in a Jurkat cell line using a luminescence assay - Set 2. [Related pubchem assays (depositor defined):AID435003, AID435012, AID465]; assay type: functional, cell-based; conditions: Homo sapiens
[12] = tested on: HEK293; assay: SAR Analysis of small molecule inhibitors of T-cell specific antigen receptor-induced NF-kB activation in a HEK-293T cell line using a luminescence assay - Set 2. [Related pubchem assays (depositor defined):AID435003, AID435012, AID489026]; assay type: functional, cell-based; conditions: Homo sapiens
[13] = molecular target: T1, Protein Wnt-3a; assay: SAR analysis of small molecule antagonists of Gli-SUFU in a Wnt3a luminescent reporter assay.; assay type: functional
[14] = molecular target: Sphingosine 1-phosphate receptor 2 (Homo sapiens, UniProt O95136); assay: Late-stage fluorescence-based dose-response cell-based counterscreen assay to identify agonists of the Sphingosine 1-Phosphate Receptor 3 (S1P3): Sphingosine 1-Phosphate Receptor 2 (S1P2) agonist assay.; assay type: functional
[15] = molecular target: T3, Sphingosine 1-phosphate receptor 4 (Homo sapiens, UniProt O95977); assay: Late-stage fluorescence-based dose-response cell-based counterscreen assay to identify agonists of the Sphingosine 1-Phosphate Receptor 3 (S1P3): Sphingosine 1-Phosphate Receptor 4 (S1P4) agonist assay.; assay type: functional
T3 sequence (O95977 whole entry): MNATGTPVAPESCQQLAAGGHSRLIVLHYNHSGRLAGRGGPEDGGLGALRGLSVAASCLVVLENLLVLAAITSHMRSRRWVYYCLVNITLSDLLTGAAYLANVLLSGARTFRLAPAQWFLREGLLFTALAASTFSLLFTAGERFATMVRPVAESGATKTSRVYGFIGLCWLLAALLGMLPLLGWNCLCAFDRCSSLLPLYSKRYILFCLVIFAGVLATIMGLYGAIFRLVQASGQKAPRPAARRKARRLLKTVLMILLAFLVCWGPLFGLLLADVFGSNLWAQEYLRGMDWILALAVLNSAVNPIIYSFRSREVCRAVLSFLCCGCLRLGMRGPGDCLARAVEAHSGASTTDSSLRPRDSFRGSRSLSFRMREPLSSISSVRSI

[16] = tested on: INS1; assay: protection of INS-1E cells from cytokine death, dose response, ATP luminescence, dry powder (AID 488844); assay type: functional, cell-based; conditions: Rattus norvegicus
[17] = tested on: INS1; assay: caspase-3/7 inhibition in cytokine-treated INS-1E, dose response, beta-cell apoptosis inhibitor project, cell-based, caspase luminescence, dry powder (AID 488848); assay type: functional; conditions: Rattus norvegicus
[18] = inhibitors of cytokine-induced nitrite release, dose response, cell-based, Griess absorbance, INS-1E, dry powder, set 3 (AID 488870); assay type: functional; conditions: Rattus norvegicus
[19] = tested on: INS1; assay: protection from cytokine-driven beta-cell apoptosis, dose response, JC-1 fluorescence, INS-1E, dry powder, set 2 (AID 488867); assay type: functional, cell-based; conditions: Rattus norvegicus
[20] = tested on: INS1; assay: inhibitors of cytokine-induced nitrite release, dose response, cell-based, Griess absorbance, INS-1E, dry powder, set 2 (AID 488868); assay type: functional; conditions: Rattus norvegicus

T1 sequence (P27467 whole entry): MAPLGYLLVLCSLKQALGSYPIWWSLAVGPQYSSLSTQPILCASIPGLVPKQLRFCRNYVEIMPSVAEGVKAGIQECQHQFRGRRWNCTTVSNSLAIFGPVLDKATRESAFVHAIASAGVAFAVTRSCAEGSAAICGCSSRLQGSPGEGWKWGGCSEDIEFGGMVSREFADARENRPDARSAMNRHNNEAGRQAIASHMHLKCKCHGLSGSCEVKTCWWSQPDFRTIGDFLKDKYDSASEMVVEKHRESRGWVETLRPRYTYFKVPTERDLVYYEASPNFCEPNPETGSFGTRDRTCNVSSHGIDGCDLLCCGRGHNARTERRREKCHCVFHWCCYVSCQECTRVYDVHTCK
Chain of Sphingosine 1-phosphate receptor 2 (O95136 whole entry): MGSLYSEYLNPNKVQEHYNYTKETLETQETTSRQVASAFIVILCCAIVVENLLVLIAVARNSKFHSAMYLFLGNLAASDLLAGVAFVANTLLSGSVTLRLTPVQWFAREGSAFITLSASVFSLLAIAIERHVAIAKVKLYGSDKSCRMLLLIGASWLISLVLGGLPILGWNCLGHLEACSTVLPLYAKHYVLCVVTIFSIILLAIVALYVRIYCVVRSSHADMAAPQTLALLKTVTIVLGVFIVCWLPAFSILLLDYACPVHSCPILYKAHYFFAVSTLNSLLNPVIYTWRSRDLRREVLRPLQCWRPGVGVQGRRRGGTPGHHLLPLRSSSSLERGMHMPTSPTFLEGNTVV

## O=C(C1CCCCC1)N1CCN(c2ccnc3cc(Cl)ccc23)CC1
[1]
  AC50: 1.01 µM (active)
[2]
  AC50: 0.661 µM (active)
[3]
  AC50: 12.5 µM (active)
[4]
  AC50: 0.688 µM (active)
[5]
  AC50: 5.02 µM (active)
[6]
  AC50: 200 µM (active)
[7]
  IC50: 10.4 µM (active)

## CCOc1ccc(-c2nc(CSCC(=O)NC3CC3)c(C)o2)cc1
[8]
  EC50: 0.241 µM (active)
[9]
  IC50: > 80 µM (inactive)
[10]
  IC50: > 80 µM (inactive)
[11]
  IC50: > 79 µM (inactive)
[12]
  IC50: > 80 µM (inactive)
[13]
  IC50: > 21.8 µM (inactive)

## O=C(c1ccc(C2CC2)o1)N(C1CCCCC1)C1CCCCC1
[14]
  EC50: > 50 µM (inactive)
[15]
  EC50: > 50 µM (inactive)

## COc1ccc(S(=O)(=O)N(C)C[C@@H]2Oc3c(NC(=O)Nc4cccc5ccccc45)cccc3C(=O)N([C@@H](C)CO)C[C@H]2C)cc1
[16]
  AC50: 4.88 µM (active)
[17]
  AC50: 81.2 µM (active)
[18]
  AC50: 26.4 µM (active)
[19]
  AC50: 259 µM (active)
[20]
  AC50: 46.8 µM (active)
